For this assay, the system named is Mycobacterium tuberculosis. As to the kind of experiment: Antitubercular activity against Multi-drug resistant Mycobacterium tuberculosis assessed as inhibition of bacterial growth incubated for 14 days by microplate alamar blue assay. The note with it: 336 h, time 14 day. The assay is classed as functional.

Values after ≈ are worked out from the molar mass of the structure shown.

Consider `CCCCCCCCCCCCCCCCC(=O)N(O)CCCC[C@H](NC(=O)[C@@H]1COC(c2ccccc2O)=N1)C(=O)NC[C@H](CC(=O)CCCO[C@H]1O[C@@H]2O[C@@]3(C)CC[C@H]4[C@H](C)CC[C@@H]([C@H]1C)[C@@]24OO3)C(=O)N[C@H]1CCCCN(O)C1=O`, for which the MIC stood at 0.16 µg/mL (≈ 0.137 µM).

For the origin of these results see ChEMBL document CHEMBL5329193, “Targeting Mycobacterium tuberculosis iron-scavenging tools: a recent update on siderophores inhibitors” (RSC Med Chem, 2023).
